l = locked nucleic acid (LNA); d = 2'-deoxy (DNA)
Columns and labels:
[1] = tested on: NCI-H929 cells; assay: Flow cytometry of 7-AAD stained cells after transfection; type: cell-based, Human; conditions: transfection 25 nM, as compared to RNase-free water
Description: (§1) 3×10^5 cells were transfected using Neon Transfection System (Invitrogen, Calif.,U.S.), (2 pulses at 1150, 30ms). The transfection efficiency evaluated by flow-cytometric analysis relative to a FAM dye—labeled anti-miR—negative control reached 85% to 90%.
(§2) 7-aminoactinomycin was used to evaluate cell viability. The staining was performed according to manufacturer's instructions.

[2] = tested on: NCI-H929 MM xenografts; assay: In vivo anti-MM activity in NCI-H929 xenografted SCID/NOD mice
Excerpt: Male CB-17 severe combined immunodeficient (SCID) mice (6- to 8-weeks old; Harlan Laboratories, Inc., Indianapolis) were housed and monitored in our Animal Research Facility. All experimental procedures and protocols had been approved by the Institutional Ethical Committee (Magna Graecia University) and conducted according to protocols approved by the National Directorate of Veterinary Services (Italy). In accordance with institutional guidelines, mice were sacrificed when tumors reached 2 cm in diameter or in the event of paralysis or major compromise, to prevent unnecessary suffering. Animal experimental procedures have been performed as in previous reports (Di Martino et al, CCR 2012; Di Martino el al. Oncotarget 2013, Di Martino et al PlosOne 2014). Briefly, mice were subcutaneously inoculated with 5×10^6 NCI-H929 cells and treatments started when palpable tumors became detectable, approximately 3 weeks following injection of MM cells. Treatments were performed intraperitoneally with different schedules in order to reach the Maximun Tolerated Dose (MTD) and a dose-response curve. Mice were also inoculated with 5×10^6 luciferase gene-marked U266, AMO-1, AMO-1/abzb, treatments were performed intraperitoneally (i.p.), and tumor volume were measured by IVIS Lumina II.
The tumor sizes were assessed by Caliper measurement. […]

[3] = tested on: AMO1 cells; assay: Combination with proteasome inhibitors or melphalan, 7-AAD cell viability, combination index; type: cell-based, Human; conditions: for CI value of combination with Bortezomib / CI value of combination with Carfilzomib / CI value of combination with Melphalan: AMO1, 6 days
Description: Bortezomib (PS-341, catalog n° S1013) and Carfilzomib (PR-171, catalog n°S2853) were purchased from Selleck. Combination between miR-17-92 LNA gapmer_06 and proteasome inhibitors was tested in AMO1 cells. 1×10^3 cells were plating in 96-well plates. Bortezomib was used at concentrations ranging from 2 nM to 3.5 nM. Carfilzomib was used at concentrations ranging from 0.4 to 0.7 nM. Measurement of synergistic index (SI) was determined with the following formula: SI=(effect induced by miR-17-92 LNA gapmers and proteasome inhibitors in combination)/effect of miR-17-92 LNA gapmers) +(effect of proteasome inhibitors). Interactions were considered synergistic when the SI was >1.
Melphalan was purchased from Sigma Aldrich (catalog n°M2011). Combination between miR-17-92 LNA gapmer_06 and melphalan was tested in AMO1 cells. Cell number at plating was 1×10^3 in 96-well plates. Melphalan was used at concentrations ranging from 0.5 μM to 2 μM. Measurement of synergistic index (SI) was determined with the following formula: SI=(effect induced by miR-17-92 LNA gapmers and melphalan in combination)/(effect of miR-17-92 LNA gapmers)+(effect of melphalan). Interactions were considered synergistic when the SI was >1.
as §2
AMO1 cells were exposed for 6 days to LNA gapmers_06 or each of Bortezomib, Carfilzomib, Melphalan or to combinations of LNA gapmer_06 and each of these drugs.
Cells viability was calculated by flow cytometric analysis of 7-AAD staining and the percentage of living cell was compared to the untreated cells.
In Tables 3-5 tests with the respective combinations performed simultaneously are reported. The effect of LNA gapmer_06 was determined separately for Bortezomib, Carfilzomib, and Melphalan explaining the slightly different values. CI (combination index) values are shown (CI<1 synergism, CI=1 additive, […]). For each monotherapy different doses and combinations were tested. Combination index were calculated using the CalcuSyn software.

[4] = tested on: RPMI-8226, KMS-12-BM and NCI-H929 MM cells; assay: AnnexinV/7-AAD staining apoptosis after transfection; type: cell-based, Human; conditions: transfection with 25 nM; 48 hours
Description: as §1, §2

[5] = tested on: miR-17-92 primary transcript (pri-miRs) and mature miR-17-92 cluster members; assay: q-RT-PCR of miR-17-92 member family and two pri-miRs after transfection of MM cells; type: cell-based, Human; conditions: 48 hours after transfection with 25 nM
Description: as §1
Reverse transcription (RT) of both primary and mature miRNAs was performed using TaqMan® MicroRNA Assays, following a procedure for multiplexing the RT step (Life Technologies, Publication Part Number 4465407). Briefly, 500 ng of total RNA, prepared with the TRIzol® Reagent (Invitrogen), underwent reverse transcription by the Taq-Man® MicroRNA RT Kit. In this reaction, the RT primer pool was composed by the individual RT primers for each microRNA belonging to the miR-17-92 cluster and two RT primers to allow the reverse transcription of the miR-17-92 primary miRNA. Real-time PCR was performed using TaqMan® MicroRNA Assays together with the TaqMan® Universal PCR Master Mix on an ViiA7 System (Life Technologies). Both primary and mature microRNAs expressions were relatively quantified using the 2-ΔΔCt method (Applied Biosystems User Bulletin No. 2), and expressed as the relative quantity of target miRNA normalized to the RNU44 (assay ID 001094) housekeeping gene. Comparative real-time polymerase chain reaction (RT-PCR) was performed in triplicate, including no-template controls. Relative expression was calculated using the comparative cross threshold (Ct) method.
By the use of a custom q-RT-PCR plate specifically designed by us to detect all six mature miR-17-92 members and the primary transcript by two different assays (pri-mir-17/18a/19a and pri-mir-19b1/20a/92a1), we quantified in a panel of 11 MM cell lines the levels of the different miRNAs and pri-miRs.

gapmer_06: LNA/DNA gapmer, SEQ ID 4 (14 mer): +T*+A*+C*T*T*G*C*T*T*G*G*+C*+T*+T; + LNA, * phosphorothioate (antisense TACTTGCTTGGCTT; sugars from the 5' end l3 d8 l3, all phosphorothioate, methylation of C not given here)
reduction of live cells (7-AAD) [1]: 20% | survival (Kaplan-Meier) ([2]; intraperitoneal treatment, as compared to saline): significant prolongation of survival | tumor growth (caliper tumor volume) ([2]; intraperitoneally, 75-50-25 μg once weekly or 25-12.5 μg twice weekly, vs saline): significant (P<0.05) inhibition of tumor growth in a dose dependent-manner | interaction with Bortezomib to induce cell death ([3]; AMO1 cells, 6 days, combination with Bortezomib): synergizes | interaction with Carfilzomib to induce cell death ([3]; AMO1 cells, 6 days, combination with Carfilzomib): synergizes | interaction with Melphalan to induce cell death ([3]; AMO1 cells, 6 days, combination with Melphalan): synergizes | CI value of combination with Bortezomib ([3]; Bortezomib 0.0035 μm + miR-17-92 LNA gapmer 0.5 μl): 0.759 | CI value of combination with Bortezomib ([3]; Bortezomib 0.0035 μm + miR-17-92 LNA gapmer 0.75 μl): 0.418 | CI value of combination with Bortezomib ([3]; Bortezomib 0.0035 μm + miR-17-92 LNA gapmer 1 μl): 0.342 | CI value of combination with Bortezomib ([3]; Bortezomib 0.0035 μm + miR-17-92 LNA gapmer 1.25 μl): 0.036 | CI value of combination with Carfilzomib ([3]; Carfilzomib 0.0004 μm + miR-17-92 LNA gapmer 1.25 μl): 0.89 | CI value of combination with Carfilzomib ([3]; Carfilzomib 0.0005 μm + miR-17-92 LNA gapmer 1.25 μl): 0.55 | CI value of combination with Carfilzomib ([3]; Carfilzomib 0.0006 μm + miR-17-92 LNA gapmer 1.25 μl): 0.50 | CI value of combination with Carfilzomib ([3]; Carfilzomib 0.0007 μm + miR-17-92 LNA gapmer 1.25 μl): 0.39 | CI value of combination with Melphalan ([3]; Melphala 1.5 μm + miR-17-92 LNA gapmer 0.5 μl): 0.78 | CI value of combination with Melphalan ([3]; Melphala 1.5 μm + miR-17-92 LNA gapmer 0.75 μl): 0.99 | CI value of combination with Melphalan ([3]; Melphala 1.5 μm + miR-17-92 LNA gapmer 1 μl): 0.65 | CI value of combination with Melphalan ([3]; Melphala 1.5 μm + miR-17-92 LNA gapmer 1.25 μl): 0.56 | CI value of combination with Melphalan ([3]; Melphala 1.75 μm + miR-17-92 LNA gapmer 0.5 μl): 0.66 | CI value of combination with Melphalan ([3]; Melphala 1.75 μm + miR-17-92 LNA gapmer 0.75 μl): 0.89 | CI value of combination with Melphalan ([3]; Melphala 1.75 μm + miR-17-92 LNA gapmer 1 μl): 0.56 | CI value of combination with Melphalan ([3]; Melphala 1.75 μm + miR-17-92 LNA gapmer 1.25 μl): 0.47 | CI value of combination with Melphalan ([3]; Melphala 2 μm + miR-17-92 LNA gapmer 0.5 μl): 0.51 | CI value of combination with Melphalan ([3]; Melphala 2 μm + miR-17-92 LNA gapmer 0.75 μl): 0.59 | CI value of combination with Melphalan ([3]; Melphala 2 μm + miR-17-92 LNA gapmer 1 μl): 0.46 | CI value of combination with Melphalan ([3]; Melphala 2 μm + miR-17-92 LNA gapmer 1.25 μl): 0.26 | apoptosis (AnnexinV/7-AAD staining) [4]: increased apoptosis | downregulation of primary and mature miRNA sequences (q-RT-PCR) ([5]; NCI-H929 and RPMI-8226 cells, relative to RNase-free water): more effective gapmer to downregulate both primary and mature miRNA sequences | downregulation of pri-miRs and miR-17-92 cluster members (q-RT-PCR) ([5]; NCI-H929 cells, vs RNase-free water): induce downregulation of the two primary transcript and mature single miRNA members
